Data: patent US12398121B2 (Nuvation Bio Inc., priority 2018, dated 2025)

Each compound was assayed against Human recombinant PARP2 (Homo sapiens, UniProt Q9UGN5) (assay: RBC HotSpot PARP2 radioisotope-based filter binding assay). Settings: not given.
Format: biochemical
Procedure: The following methods are for evaluating the in vitro biology properties of the test articles. • a. RBC HotSpot Poly(ADP-ribose) Polymerases 1 (PARP1) and Poly(ADP-ribose) Polymerases 2 (PARP2) Assays: The assay principle is radioisotope-based filter binding assay where incorporation of radioisotope-labeled NAD^+ into the substrate captured on filter is detected after washout free NAD^+. Data were analyzed using Excel and GraphPad Prism software for IC50 curve fits. Each assay was conducted with PJ34 as a positive control. • i. PARP1 assay: Human recombinant PARP1 at a final concentration of 2.5 nM was combined with histone H4 (20 μM) and test articles at various concentrations in reaction buffer (50 mM Tris-HCL, pH 8.0, 50 mM NaCl, 10 mM MgCl2, 1 mM DTT, 1% DMSO, and 20 μg/mL activated DNA). The solution was inoculated for 20 min at room temperature and the reaction initiated by adding [adenylate-^32P]-Nicotinamide Adenine Dinucleotide, ^32P-NAD^+ at a final concentration of 10 μM. After incubation for 2 hour at room temperature, the reaction mixture was filtered and washed with 0.75% phosphoric acid for radioactivity detection. • ii. PARP2 assay: Human recombinant PARP2 at a final concentration of 2.5 nM was combined with histone H3 (20 μM) and test articles at various concentrations in reaction buffer (50 mM Tris-HCL, pH 8.0, 50 mM NaCl, 10 mM MgCl2, 1 mM DTT, 1% DMSO, and 20 μg/mL activated DNA). The solution was inoculated for 20 min at room temperature and the reaction was initiated by adding [adenylate-^32P]-Nicotinamide Adenine Dinucleotide, ^32P-NAD^+ at a final concentration of 10 μM. After incubation for 2 hour at room temperature, the reaction mixture was filtered and washed with 0.75% phosphoric acid for radioactivity detection. • b. AR binding assay: AR in LNCaP cytosol was used for determining the binding affinity of test articles and the reference compound—progesterone (Sigma, Cat: E2785, St. Louis, MO). IC50s were determined using 8 concentrations/compound. Cytosol was plated at 200 μg/well (100 μL) into a 96-well conical polypropylene plate (Agilent, Cat: 5042-1385, Santa Clara, CA) and mixed with 3 μL of test compound. After adding 100 μL of ^3H-methyltrienolone (PerkinElmer, Cat: NET590250UC, San Jose, CA), the plate was sealed and shaken at 300 rpm at 4° C. for 24 hours. Post incubation, 100 μL of radioligand adsorption buffer containing 10 mM Tris-HCl, pH 7.4; 1.5 mM EDTA; 1 mM DTT; 0.25% charcoal; 0.0025% dextran was added to individual well. Plate was shaken for 15 min at 4′C followed by centrifugation at 3000 rpm for 30 min at 4° C. 150 μL of supernatant was transferred into scint-tube (PerkinElmer, Cat: 6000192) and mixed with 2 mL of Ultima Gold Cocktail (PerkinElmer, Cat: 6013329). Radioactivity was counted using a TriCarb 2910 TR scintillation counter (PerkinElmer). Inhibition of the radioactivity by test articles were calculated using the equation below: % Inhibition=(1−(Assay well−Average_LC)/(Average_HC−Average_LC))×100%.

Sequence of Human recombinant PARP2 (Q9UGN5 whole entry): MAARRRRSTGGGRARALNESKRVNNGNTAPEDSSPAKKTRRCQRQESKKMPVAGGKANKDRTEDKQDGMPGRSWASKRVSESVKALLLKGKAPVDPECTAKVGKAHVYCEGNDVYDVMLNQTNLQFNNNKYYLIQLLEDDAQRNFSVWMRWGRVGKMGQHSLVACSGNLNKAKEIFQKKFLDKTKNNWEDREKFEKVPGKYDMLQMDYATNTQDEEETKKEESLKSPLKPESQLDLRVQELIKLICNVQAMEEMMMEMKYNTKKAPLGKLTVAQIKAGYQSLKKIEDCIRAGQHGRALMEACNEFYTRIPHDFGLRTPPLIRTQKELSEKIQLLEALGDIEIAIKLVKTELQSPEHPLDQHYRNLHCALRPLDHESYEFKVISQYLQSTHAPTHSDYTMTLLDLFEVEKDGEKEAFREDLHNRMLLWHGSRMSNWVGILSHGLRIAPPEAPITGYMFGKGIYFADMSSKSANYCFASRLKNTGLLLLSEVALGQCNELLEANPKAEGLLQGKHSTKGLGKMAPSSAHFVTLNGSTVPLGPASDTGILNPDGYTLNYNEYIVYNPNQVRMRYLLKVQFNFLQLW

SMILES | IC50 [nM]
C[C@](O)(CS(=O)(=O)c1ccc(NCC(=O)N2CCN(C(=O)c3cc(Cc4n[nH]c(=O)c5ccccc45)ccc3F)CC2)cc1)C(=O)Nc1ccc(C#N)c(C(F)(F)F)c1 [Compound 1.98, (R)-N-(4-cyano-3-(trifluoromethyl)phenyl)-3-(4-(2-(4-(2-fluoro-5-((4-oxo-3,4-dihydrophthalazin-1-yl)methyl)benzoyl)piperazin-1-yl)-2-oxoethylamino)phenylsulfonyl)-2-hydroxy-2-methylpropanamide] | 0.1
C[C@](O)(CS(=O)(=O)c1ccc(NCCN2CCN(C(=O)c3cc(Cc4n[nH]c(=O)c5ccccc45)ccc3F)CC2)cc1)C(=O)Nc1ccc(C#N)c(C(F)(F)F)c1 [Compound 1.99, (R)-N-(4-cyano-3-(trifluoromethyl)phenyl)-3-(4-(2-(4-(2-fluoro-5-((4-oxo-3,4-dihydrophthalazin-1-yl)methyl)benzoyl)piperazin-1-yl)ethylamino)phenylsulfonyl)-2-hydroxy-2-methylpropanamide] | 0.2

Same assay, conditions: 2.5 nM enzyme, histone H3, 10 μM 32P-NAD+; read-out: PARP2 IC50

SMILES | IC50 [nM]
C[C@]12CCC(=O)C[C@@H]1CC[C@@H]1[C@@H]2CC[C@@]2(C)[C@H]1CC[C@@]2(O)CCC(=O)N1CCN(C(=O)c2cc(Cc3n[nH]c(=O)c4ccccc34)ccc2F)CC1 (stereo in doubt) [Compound 1.117, 4-(4-fluoro-3-(4-(3-((5S,8R,9S,10S,13S,14S,17R)-17-hydroxy-10,13-dimethyl-3-oxohexadecahydro-1H-cyclopenta[a]phenanthren-17-yl)propanoyl)piperazine-1-carbonyl)benzyl)phthalazin-1(2H)-one] | 0.1
C[C@]12CCC(=O)C[C@@H]1CC[C@@H]1[C@@H]2CC[C@@]2(C)[C@H]1CC[C@@]2(O)c1cn(CC(=O)N2CCN(C(=O)c3cc(Cc4n[nH]c(=O)c5ccccc45)ccc3F)CC2)nn1 [Compound 1.107, 4-(4-fluoro-3-(4-(2-(4-((5S,8R,9S,10S,13S,14S,17S)-17-hydroxy-10,13-dimethyl-3-oxohexadecahydro-1H-cyclopenta[a]phenanthren-17-yl)-1H-1,2,3-triazol-1-yl)acetyl)piperazine-1-carbonyl)benzyl)phthalazin-1(2H)-one] | 0.1
C[C@]12CCC(O)C[C@@H]1CC[C@@H]1[C@@H]2CC[C@]2(C)[C@@H](OCCCCCC(=O)N3CCN(C(=O)c4cc(Cc5n[nH]c(=O)c6ccccc56)ccc4F)CC3)CC[C@@H]12 (stereo partly drawn) [Compound 1.111, 4-(4-fluoro-3-(4-(6-((5S,8R,9S,10S,13S,14S,17S)-3-hydroxy-10,13-dimethylhexadecahydro-1H-cyclopenta[a]phenanthren-17-yloxy)hexanoyl)piperazine-1-carbonyl)benzyl)phthalazin-1(2H)-one] | 0.2
C[C@]12CCC(F)(F)C[C@@H]1CC[C@@H]1[C@@H]2CC[C@]2(C)[C@@H](OCCCCCC(=O)N3CCN(C(=O)c4cc(Cc5n[nH]c(=O)c6ccccc56)ccc4F)CC3)CC[C@@H]12 [Compound 1.114, 4-(3-(4-(6-((5S,8R,9S,10S,13S,14S,17S)-3,3-difluoro-10,13-dimethylhexadecahydro-1H-cyclopenta[a]phenanthren-17-yloxy)hexanoyl)piperazine-1-carbonyl)-4-fluorobenzyl)phthalazin-1(2H)-one] | 1.9
C[C@]12CCC(=O)C[C@@H]1CC[C@@H]1[C@@H]2CC[C@@]2(C)[C@H]1CC[C@@]2(O)C#CC(=O)N1CCN(C(=O)c2cc(Cc3n[nH]c(=O)c4ccccc34)ccc2F)CC1 [Compound 1.116, 4-(4-fluoro-3-(4-(3-((5S,8R,9S,10S,13S,14S,17S)-17-hydroxy-10,13-dimethyl-3-oxohexadecahydro-1H-cyclopenta[a]phenanthren-17-yl)propioloyl)piperazine-1-carbonyl)benzyl)phthalazin-1(2H)-one] | 0.2
C[C@]12CCC(=O)C[C@@H]1CC[C@@H]1[C@@H]2CC[C@@]2(C)[C@H]1CC[C@@]2(O)C#CCN1CCN(C(=O)c2cc(Cc3n[nH]c(=O)c4ccccc34)ccc2F)CC1 [Compound 1.118, 4-(4-fluoro-3-(4-(3-((5S,8R,9S,10S,13S,14S,17S)-17-hydroxy-10,13-dimethyl-3-oxohexadecahydro-1H-cyclopenta[a]phenanthren-17-yl)prop-2-ynyl)piperazine-1-carbonyl)benzyl)phthalazin-1(2H)-one] | 1
C[C@]12CCC(=O)C[C@@H]1CC[C@@H]1[C@@H]2CC[C@@]2(C)[C@H]1CC[C@@]2(O)CCCN1CCN(C(=O)c2cc(Cc3n[nH]c(=O)c4ccccc34)ccc2F)CC1 [Compound 1.119, 4-(4-fluoro-3-(4-(3-((5S,8R,9S,10S,13S,14S,17R)-17-hydroxy-10,13-dimethyl-3-oxohexadecahydro-1H-cyclopenta[a]phenanthren-17-yl)propyl)piperazine-1-carbonyl)benzyl)phthalazin-1(2H)-one] | 0.3
CN(CCCCCC(=O)N1CCN(C(=O)c2cc(Cc3n[nH]c(=O)c4ccccc34)ccc2F)CC1)CCOc1ccc(C(=O)c2c(-c3ccc(O)cc3)sc3cc(O)ccc23)cc1 [Compound 2.4, 4-(4-fluoro-3-(4-(6-((2-(4-(6-hydroxy-2-(4-hydroxyphenyl)benzo[b]thiophene-3-carbonyl)phenoxy)ethyl)(methyl)amino)hexanoyl)piperazine-1-carbonyl)benzyl)phthalazin-1(2H)-one] | 0.3
